Experimental data from patent publication US8501755B2, “Tetrahydropyridothienopyrimidine compounds and methods of use thereof” (Bayer Intellectual Property GmbH, priority 2006, dated 2013).

Assays:
Format in all cases: cell-based
H1975 cells = experiment: In vitro tumor cell proliferation assay (Cell Titer-Glo) in H1975 cells; conditions: NCI-H1975; H1975 human NSCLC expressing mutant HER1 (L858R,T790M); 72 hours exposure; read-out: IC50, activities in H 1975 cell lines
How it was run: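 After 72 h compound exposure at 37° C (top 10 uM down to 64 pM, 0.1% DMSO), viability of EGFR L858R/T790M-mutant H1975 cells was read as ATP luminescence.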

A431 cells = experiment: In vitro tumor cell proliferation assay (Cell Titer-Glo) in A431 cells; conditions: Homo sapiens, A-431, 72 h, A431 human epidermoid carcinoma overexpressing HER1; 72 hours exposure; read-out: IC50, activities in A431 cell lines
How it was run: (§1)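 Viability after 72 h drug exposure at 37 °C was read as CellTiter-Glo ATP luminescence, giving IC50. Cells (2.5×10^3/well, RPMI + 10% FBS) were compound-treated one day post-seeding, 0.1% DMSO final: A431 overexpresses HER1, N87 overexpresses HER2 and HER1.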

N87 = experiment: In vitro tumor cell proliferation assay (Cell Titer-Glo) in N87 cells; conditions: N87 human gastric carcinoma overexpressing HER2 and HER1; 72 hours exposure; read-out: IC50, activities in N87 cell lines
How it was run: as §1

Row | SMILES | IC50 (H1975 cells) | IC50 (A431 cells) | IC50 (N87)
1 | O=C(/C=C/CN1CCOCC1)N1CCc2c(sc3ncnc(Nc4ccc(Cl)c(Cl)c4)c23)C1 [Example 191, N-(3,4-dichlorophenyl)-7-[{2E)-4-morpholin-4-ylbut-2-enoyl]-5,6,7,8-tetrahydropyrido [4′,3′:4,5]thieno[2,3-d]pyrimidin-4-amine] | 1000 to 10000 nM | 200 to 1000 nM | < 200 nM
2 | O=C(/C=C/CN1CCOCC1)N1CCc2c(sc3ncnc(Nc4cccc(Br)c4)c23)C1 [Example 193, N-(3-bromophenyl)-7-[(2E)-4-morpholin-4-ylbut-2-enoyl]-5,6,7,8-tetrahydropyrido [4′,3′:4,5]thieno[2,3-d]pyrimidin-4-amine] | 1000 to 10000 nM | 1000 to 10000 nM | < 200 nM
3 | CN(C/C=C/C(=O)N1CCc2c(sc3ncnc(Nc4cccc(Br)c4)c23)C1)C(C)(C)C [Example 198, N-(3-bromophenyl)-7-{(2E)-4-[tert-butyl(methyl)amino]but-2-enoyl}-5,6,7,8-tetrahydropyrido [4′,3′:4,5]thieno[2,3-d]pyrimidin-4-amine] | 200 to 1000 nM | < 200 nM | < 200 nM
4 | CCN(C/C=C/C(=O)N1CCc2c(sc3ncnc(Nc4ccc(Cl)c(Cl)c4)c23)C1)C1CCCCC1 [Example 200, 7-{(2E)-4-[cyclohexyl(ethyl)amino]but-2-enoyl}-N-(3,4-dichlorophenyl)-5,6,7,8-tetrahydropyrido [4′,3′:4,5]thieno[2,3-d]pyrimidin-4-amine] | 200 to 1000 nM | 200 to 1000 nM | < 200 nM
5 | CCN(C/C=C/C(=O)N1CCc2c(sc3ncnc(Nc4cccc(Br)c4)c23)C1)C1CCCCC1 [Example 201, N-(3-bromophenyl)-7-{(2E)-4-[cyclohexyl(ethyl)amino]but-2-enoyl}-5,6,7,8-tetrahydropyrido [4′,3′:4,5]thieno[2,3-d]pyrimidin-4-amine] | 200 to 1000 nM | 200 to 1000 nM | < 200 nM
6 | CN(C/C=C/C(=O)N1CCc2c(sc3ncnc(Nc4cccc(Br)c4)c23)C1)C1CCCCC1 [Example 202, N-(3-bromophenyl)-7-{(2E)-4-[cyclohexyl(methyl)amino]but-2-enoyl}-5,6,7,8-tetrahydropyrido [4′,3′:4,5]thieno[2,3-d]pyrimidin-4-amine] | 200 to 1000 nM | 200 to 1000 nM | < 200 nM
7 | CN(C/C=C/C(=O)N1CCc2c(sc3ncnc(Nc4ccc(Cl)c(Cl)c4)c23)C1)C1CCCCC1 [Example 203, 7-{(2E)-4-[cyclohexyl(methyl)amino]but-2-enoyl}-N-(3,4-dichlorophenyl)-5,6,7,8-tetrahydropyrido [4′,3′:4,5]thieno[2,3-d]pyrimidin-4-amine] | 1000 to 10000 nM | 200 to 1000 nM | < 200 nM
8 | CCN(C/C=C/C(=O)N1CCc2c(sc3ncnc(Nc4cccc(Br)c4)c23)C1)C(C)C [Example 204, N-(3-bromophenyl)-7-{(2E)-4-[ethyl(isopropyl)amino]but-2-enoyl}-5,6,7,8-tetrahydropyrido [4′,3′:4,5]thieno[2,3-d]pyrimidin-4-amine] | 200 to 1000 nM | 200 to 1000 nM | < 200 nM
9 | CC1CCCN1C/C=C/C(=O)N1CCc2c(sc3ncnc(Nc4cccc(Br)c4)c23)C1 (stereo not drawn) [Example 207, N-(3-bromophenyl)-7-[(2E)-4-(2-methylpyrrolidin-1-yl)but-2-enoyl]-5,6,7,8-tetrahydropyrido [4′,3′:4,5]thieno[2,3-d]pyrimidin-4-amine] | 200 to 1000 nM | 200 to 1000 nM | < 200 nM
10 | CC(C)N(C/C=C/C(=O)N1CCc2c(sc3ncnc(Nc4cccc(Br)c4)c23)C1)C(C)C [Example 208, N-(3-bromophenyl)-7-[(2E)-4-(diisopropylamino)but-2-enoyl]-5,6,7,8-tetrahydropyrido [4′,3:4,5]thieno[2,3-d]pyrimidin-4-amine] | 200 to 1000 nM | 200 to 1000 nM | < 200 nM
11 | CC(C)N(C/C=C/C(=O)N1CCc2c(sc3ncnc(Nc4ccc(Cl)c(Cl)c4)c23)C1)C(C)C [Example 209, N-(3,4-dichlorophenyl)-7-[(2E)-4-(diisopropylamino)but-2-enoyl]-5,6,7,8-tetrahydropyrido [4′,3′:4,5]thieno[2,3-d]pyrimidin-4-amine] | 200 to 1000 nM | 200 to 1000 nM | < 200 nM

Now from value to compound:

Row | IC50 (H1975 cells) | IC50 (A431 cells) | IC50 (N87) | SMILES
12 | 200 to 1000 nM | 200 to 1000 nM | < 200 nM | CC(C)N(C)C/C=C/C(=O)N1CCc2c(sc3ncnc(Nc4cccc(Br)c4)c23)C1 [Example 189, N-(3-bromophenyl)-7-{(2E)-4-[isopropyl(methyl)amino]but-2-enoyl}-5,6,7,8-tetrahydropyrido [4′,3′:4,5]thieno[2,3-d]pyrimidin-4-amine]
13 | 200 to 1000 nM | 200 to 1000 nM | < 200 nM | CCN(C)C/C=C/C(=O)N1CCc2c(sc3ncnc(Nc4ccc(Cl)c(Cl)c4)c23)C1 [Example 190, N-(3,4-dichlorophenyl)-7-{(2E)-4-[ethyl(methyl)amino]but-2-enoyl}-5,6,7,8-tetrahydropyrido [4′,3:4,5]thieno[2,3-d]pyrimidin-4-amine]
14 | 200 to 1000 nM | 200 to 1000 nM | < 200 nM | O=C(/C=C/CN1CCCC1)N1CCc2c(sc3ncnc(Nc4ccc(Cl)c(Cl)c4)c23)C1 [Example 192, N-(3,4-dichlorophenyl)-7-[(2E)-4-pyrrolidin-1-ylbut-2-enoyl]-5,6,7,8-tetrahydropyrido [4′,3′:4,5]thieno[2,3-d]pyrimidin-4-amine]
15 | < 200 nM | < 200 nM | < 200 nM | O=C(/C=C/CN1CCCC1)N1CCc2c(sc3ncnc(Nc4cccc(Br)c4)c23)C1 [Example 194, N-(3-bromophenyl)-7-[(2E)-4-pyrrolidin-1-ylbut-2-enoyl]-5,6,7,8-tetrahydropyrido [4′,3′:4,5]thieno[2,3-d]pyrimidin-4-amine]
16 | < 200 nM | < 200 nM | < 200 nM | O=C(/C=C/CN1CCCCC1)N1CCc2c(sc3ncnc(Nc4ccc(Cl)c(Cl)c4)c23)C1 [Example 195, N-(3,4-dichlorophenyl)-7-[(2E)-4-piperidin-1-ylbut-2-enoyl]-5,6,7,8-tetrahydropyrido [4′,3′:4,5]thieno[2,3-d]pyrimidin-4-amine]
17 | 200 to 1000 nM | < 200 nM | < 200 nM | O=C(/C=C/CN1CCCCC1)N1CCc2c(sc3ncnc(Nc4cccc(Br)c4)c23)C1 [Example 196, N-(3-bromophenyl)-7-[(2E)-4-piperidin-1-ylbut-2-enoyl]-5,6,7,8-tetrahydropyrido [4′,3′:4,5]thieno[2,3-d]pyrimidin-4-amine]
18 | 200 to 1000 nM | < 200 nM | < 200 nM | CCN(CC)C/C=C/C(=O)N1CCc2c(sc3ncnc(Nc4cccc(Br)c4)c23)C1 [Example 197, N-(3-bromophenyl)-7-[(2E)-4-(diethylamino)but-2-enoyl]-5,6,7,8-tetrahydropyrido [4′,3′:4,5]thieno[2,3-d]pyrimidin-4-amine]
19 | < 200 nM | < 200 nM | < 200 nM | CN(C/C=C/C(=O)N1CCc2c(sc3ncnc(Nc4ccc(Cl)c(Cl)c4)c23)C1)C(C)(C)C [Example 199, 7-{(2E)-4-[tert-butyl(methyl)amino]but-2-enoyl}-N-(3,4-dichlorophenyl)-5,6,7,8-tetrahydropyrido [4′,3′:4,5]thieno[2,3-d]pyrimidin-4-amine]
20 | < 200 nM | < 200 nM | < 200 nM | CCN(C/C=C/C(=O)N1CCc2c(sc3ncnc(Nc4ccc(Cl)c(Cl)c4)c23)C1)C(C)C [Example 205, N-(3,4-dichlorophenyl)-7-{(2E)-4-[ethyl(isopropyl)amino]but-2-enoyl}-5,6,7,8-tetrahydropyrido [4′,3′:4,5]thieno[2,3-d]pyrimidin-4-amine]
